This is an account of results in US8747815B2, “Use of a cosmetic of pharmaceutical composition, comprising a lupeol-rich extract as an active ingredient for stimulating the synthesis of heat shock proteins” (Laboratoires Expanscience, priority 2003, dated 2014).

For data set [1], the system named is fibroblasts from a red or recent stretch mark (FVr). The data set can be described thus: Retraction of collagen lattice (free lattice), red stretch mark fibroblasts. Type of data set: cell-based. The method, then:
(§1) Normal fibroblasts (FS), fibroblasts from a red or recent stretch mark (FVr) and fibroblasts from an older white stretch mark (FVb) were used in this study.
(§2) The fibroblasts were cultured in the absence or in the presence of lupeol at a concentration of 7 μg/ml.
(§3) The mechanism of retraction consists of the gathering up and rearranging of collagen by fibroblasts. The collagen polymerizes into fibrils to which the cells attach. The latter pull on the fibrils by virtue of their migratory movement, and thus reorganize the matrix. The diameter of the lattice is then decreased.
(§4) The mixture for producing lattices was poured into Petri dishes 50 mm in diameter. A gel formed in a few minutes at 37° C. The lattices were cultured with or without lupeol. The degree of retraction was determined by measuring the diameters of the lattices.

Data set [2] deals with gene encoding HSP47. The data set can be described thus: cDNA microarray, expression of the gene encoding HSP47 in human skin fibroblasts. Format: cell-based. Conditions: 4.5 μg/ml lupeol. The procedure: We used the “cDNA microarray” method for studying the effects of the product on the expression of the genes encoding structural and regulatory proteins of potential interest in skin physiology. Such an approach makes it possible to screen, in a single step, the effects of a product or of a treatment on gene expression in a given biological system and to obtain a signature of the effects of this treatment.
The product was applied to human skin fibroblasts cultured in MEM/M199 for 18 hours. The lupeol, in solution in ethanol was tested at the concentration of […], this concentration corresponds to a noncytotoxic dose.
The methodology used is that recommended by Clontech (Palo Alto, USA), and comprises: • a step consisting in extracting and purifying the total RNA; • a step consisting in purifying the messenger RNAs according to the AtlasPure protocol (Clontech); • labeling of the DNA probes with P^32 by reverse transcription; • purifying the label probes by exclusion column chromatography and verification of the quality and of the equivalence by liquid scintillation counting; and • hybridizing membranes (provided by the company Custom Atlas BIOAlternative) with the radiolabeled probes (68° C., overnight). Analysis of Results
The membranes were analyzed by direct quantification of the radioactivity of the spots using a Cyclone PhosphorImager (provided by the company Packard Instrument).
The results are expressed in relative units (RU, mean radioactivity of the points of the double spot corresponding to each gene, corrected for the background noise and for the differences in probe labeling intensity).
The results were analyzed case by case, label by label. Arbitrarily, the limit of significance was fixed at approximately +30% of the control for a stimulating effect, i.e. for an effect greater than 130%.

Data set [3] has as its system FS, FVr and FVb fibroblasts. Briefly: Demonstration of αSM actin (immunolabeling) in fibroblasts cultured in lattice. To be noted: lupeol 7 μg/ml, lattices cultured for 5 days. Format: cell-based. The method, then:
Normal fibroblasts (FS), fibroblasts from a red or recent stretch mark (FVr) and fibroblasts from an older white stretch mark (FVb) were used in this study. The fibroblasts were cultured in the absence or in the presence of lupeol at a concentration of 7 μg/ml. Fibroblasts are large (100 μm) cells with a fusiform or star-shaped morphology. Their cytoplasm contains an assembly of protein filaments (intermediate filaments, microtubules, actin filaments) which constitute the framework, or cytoskeleton, thereof in close relationship with the plasma membrane. 10% of all cell proteins consist of actin, polymerized in the form of filaments and bundles, which are often described as stress fibers. Actin filaments contribute to the contractile activity of the fibroblast by generating isometric forces. Several types of actin exist, including polymerized fibrillar actin (F actin) and a smooth muscle actin (αSM actin). Lattices pulled over a nylon ring were cultured for 5 days in Petri dishes (Ø 50 mm). They were fixed with 3% paraformaldehyde in PBS for 20 min, and then rinsed with PBS. They were subsequently incubated with PBS+0.1% Triton X100 so as to permeabilize the membrane with respect to antibodies, and then with 3% H2O2 in order to eliminate endogenous peroxidases. […] was blocked with 3% BSA+10% sheep serum in PBS. […]

For data set [4], the system named is fibroblasts from an older white stretch mark (FVb). The data set can be described thus: Isometric forces developed by fibroblasts in lattice, white stretch mark fibroblasts. Conditions: FVb + lupeol 7 μg/ml, at 7 hours of culture; FVb alone 3999 V±881. Type of data set: cell-based. The text has this: (§5) Normal fibroblasts (FS), fibroblasts from a red or recent stretch mark (FVr) and fibroblasts from an older white stretch mark (FVb) were used in this study. Mechanical inhibition of the retraction of the collagen gel in which fibroblasts are embedded is reflected by the generation of a force, called “retraction force” or “isometric force”. The lattices develop in a culture dish that consists of 8 rectangular cells. Placed into each one are 2 flexible silicon slides, the lower parts of which consist of grids to which the lattice attaches when it polymerizes. The lattice develops between 2 slides so as to give a rectangular shape that is slightly shrunken at the center. This shape in conventional mechanics is referred to as a “diabolo” shape. These slides have, in their upper part, a strain gauge system made of gold deposited at their surface. Under the influence of the retraction force developed by the fibroblasts, the silicon slides distort. This is reflected by a variation in the value of electrical resistance of the stress gauge, measured by means of a Wheatstone bridge. This variation indicates the force developed within the lattice, measured in real time via a PC acquisition card and suitable software. The mixture for producing the lattices was poured into the rectangular cells of the culture dish. A gel formed in a few minutes at 37° C. […] The isometric forces were measured for 48 hours.

In data set [5] the test system is Normal fibroblasts (FS). The data set can be described thus: Retraction of collagen lattice (free lattice), normal fibroblasts. Type of data set: cell-based. The method, then:
as §1, §2, §3, §4

Data set [6] relates to fibroblasts from an older white stretch mark (FVb). Briefly: Retraction of collagen lattice (free lattice), white stretch mark fibroblasts. Format: cell-based. The method, then:
as §1, §2, §3, §4

Data set [7] relates to HSP47 heat shock protein. The data set can be described thus: Western blotting, expression of the HSP47 protein in fibroblasts in culture. Type of data set: cell-based, human. To be noted: dose of 20 μg/ml, incubation time of 48 h. The procedure: This technique consists of: • separation of the various proteins on a polyacrylamide gel under denaturing conditions; • transfer of the proteins onto a specific membrane (PVDF membrane, sold by the company Biorad); • labeling of the protein of interest with a specific antibody (HSP47, Stressgen); • “colorimetric” visualization (Sigma Fast, BCPIP/NBT). Various nontoxic concentrations (5, 10 and 20 μg/ml) and several incubation times (24 and 48 hours) were tested.

The test system of data set [8] is human skin fibroblasts. Briefly: Cytotoxicity of test concentrations on fibroblasts in culture. Format: cell-based.
Data set [9] relates to Normal fibroblasts (FS). The data set can be described thus: Isometric forces developed by fibroblasts in lattice, normal fibroblasts. Format: cell-based. Conditions: FS + lupeol 7 μg/ml, at 7 hours of culture; FS alone 3583 V±1076.
Text: as §5

In data set [10] the test system is FS, FVr and FVb fibroblasts. The data set can be described thus: Demonstration of F actin (phalloidin-FITC) in fibroblasts cultured in lattice. Format: cell-based. Conditions: lupeol 7 μg/ml, lattices cultured for 5 days. The procedure: Normal fibroblasts (FS), fibroblasts from a red or recent stretch mark (FVr) and fibroblasts from an older white stretch mark (FVb) were used in this study. The fibroblasts were cultured in the absence or in the presence of lupeol at a concentration of 7 μg/ml. Fibroblasts are large (100 μm) cells with a fusiform or star-shaped morphology. Their cytoplasm contains an assembly of protein filaments (intermediate filaments, microtubules, actin filaments) which constitute the framework, or cytoskeleton, thereof in close relationship with the plasma membrane. 10% of all cell proteins consist of actin, polymerized in the form of filaments and bundles, which are often described as stress fibers. Actin filaments contribute to the contractile activity of the fibroblast by generating isometric forces. Several types of actin exist, including polymerized fibrillar actin (F actin) and a smooth muscle actin (αSM actin). Lattices pulled over a nylon ring were cultured for 5 days in Petri dishes (Ø 50 mm). They were fixed with 3% paraformaldehyde in PBS for 20 min, and then rinsed with PBS. They were subsequently incubated with PBS+0.1% Triton X100 in order to permeabilize the membrane. […] They were mounted between slide and cover slip with a drop of Vectashield, and were then observed under a fluorescence microscope, under UV.

The test system of data set [11] is fibroblasts from a red or recent stretch mark (FVr). The data set can be described thus: Isometric forces developed by fibroblasts in lattice, red stretch mark fibroblasts. Type of data set: cell-based. To be noted: FVr + lupeol 7 μg/ml, at 7 hours of culture; FVr alone 5547 V±808.
Text: as §5

In the case of `C=C(C)[C@@H]1CC[C@]2(C)CC[C@]3(C)[C@H](CC[C@@H]4[C@@]5(C)CC[C@H](O)C(C)(C)[C@@H]5CC[C@]43C)[C@@H]12` [lupeol, Lupeol], the Gel diameter in [1] (FVr + lupeol 7 μg/ml, FVr alone 3) came out at 3.6; in data set [5] (FS + lupeol 7 μg/ml, FS alone 2.5), 3; in data set [6] (FVb + lupeol 7 μg/ml, FVb alone 2.9), 3.2. Further, the “% decrease in retraction” value came out at 20% in data set [1] (FVr, lupeol 7 μg/ml, at D2); 20% in data set [5] (FS, lupeol 7 μg/ml, at D2); 10% in data set [6] (FVb, lupeol 7 μg/ml, at D2). In data set [2] (18 hours, human skin fibroblasts), the “HSP47 gene expression, % of the control” value is recorded as 129 % of the control. Besides, in data set [2] (18 hours, human skin fibroblasts, control cells 28.2 RU), the “HSP47 gene expression, relative units (RU)” value came to 36.4 RU. Moreover, the “regulation of the expression of the gene encoding HSP47” value in data set [2] (incubation for 18 hours) is listed as “positive regulation”. Moreover, the “labeling for αSM actin” value in data set [3] was “weak labeling for αSM actin”. Besides, the figures for the isometric forces in data set [4], in [9] and in data set [11] were 1365 V, 1325 V and 2488 V, respectively. The “HSP47 production (Western blotting)” value in data set [7] is “stimulation of HSP47 production”. In addition, the “cytotoxicity of the tested concentration” value in data set [8] (4.5 μg, in solution in ethanol, human skin fibroblasts) is on record as “noncytotoxic”. Further, the “toxicity of the tested concentrations” value in data set [8] (5, 10 and 20 μg/ml, fibroblasts in culture) is “nontoxic”. Moreover, the “F actin stress fibers and fibroblast morphology” value in data set [10] was “lose their F actin stress fibers and evolve toward a star-shaped form”.
